Experimental data reported in patent US20230366033A1, “METHODS FOR TREATING CANCERS WITH INHIBITORS TARGETING THE ROLE OF GRB2 IN DNA REPAIR” (Board of Regents, The University of Texas System, priority 2020, published 2023).

Tests used:
Assay type in all cases: cell-based
control (WT) HeLa cells = experiment: Annexin V/PI staining assay, flow cytometry; settings: 50 μM olaparib for 72 h
Text: (§1) FIGS. 7A-7F. GRB2 KO sensitizes cells to PARPi. (FIG. 7A) MRE11 depletion levels with two different shRNA (KD1 and KD2) in U2OS cells with normal level of GRB2 (Ctrl) and GRB2-knockout (KO). (FIG. 7B) DR-GFP reporter assay in MRE11 knockdown control (Ctrl) and GRB2-KO U2OS cells. (FIG. 7C) DR-GFP reporter assay in PTEN-knockdown and/or GRB2-KO U2OS cells. (FIG. 7D) SRB assay of olaparib-induced cytotoxicity in control HeLa cells, GRB2-KO cells and GRB2-KO cells reconstituted with WT or K109R mutant GRB2. IC50 values are shown. (FIG. 7E) Clonogenic assay evaluating the effect of a PARPi on colony formation of HeLa cells. Cells were treated with the indicated concentrations of the PARPi olaparib and cultured for 10 days, then the resulting colonies were visualized with crystal violet staining and counted by Gelcount instrument. Parental control (WT), GRB2-KO (KO), ^WTGRB2 (KO+GRB2) and ^K109RGRB2 (KO+K109R) reconstituted HeLa cells. For each concentration on the X-axis, the columns represent, from left to right, WT, GRB2 KO, KO+GRB2, and KO+K109R. ***, p≤0.001; NS, not significant. (FIG. 7F) Bar graph representing Annexin-V/propidium iodide combined labeling and flow cytometry analysis of olaparib-treated control (WT), GRB2-KO, reconstituted ^WTGRB2(KO+GRB2) and K109R mutant (KO+K109R) HeLa cells. Cells were treated with either DMSO or 50 μM olaparib for 72 h. For each treatment group on the X-axis, the columns represent, from left to right, WT, GRB2 KO, KO+GRB2, and KO+K109R. All data are representative of three independent experiments. The significance was analyzed by two-sided student's t-test. *, p≤0.05; **, p≤0.01; ***, p≤0.001; NS, not significant.
(§2) Annexin V/PI staining assay. To determine the percentage of olaparib-induced apoptotic cells, an Annexin V-propidium iodide (PI) staining assay was used according to the standard protocol (Life Technologies). […] After incubation for 15 min at room temperature in the dark, samples were analyzed on a flow cytometer (FACSCanto IL, BD Biosciences) for the detection of Annexin V- and PI-positive subpopulations. […]

GRB2-KO HeLa cells [1] = experiment: Annexin V/PI staining assay, flow cytometry; settings: 50 μM olaparib for 72 h
Text: as §1, §2

[2] = tested on: K109R mutant (KO+K109R) HeLa cells; experiment: Annexin V/PI staining assay, flow cytometry; settings: K109R GRB2 reconstituted cells, 50 μM olaparib for 72 h
Text: as §1, §2

control HeLa cells = experiment: SRB assay of olaparib-induced cytotoxicity; settings: Homo sapiens; WT control HeLa cells, sulforhodamine B assay
Text: as §1
(§3) Cell culture. HEK293T, NIH3T3 and A431 cells (purchased from ATCC) and mouse embryonic fibroblasts (MEFs) and H2AX-KO MEFs (gifts from Andre Nussenzweig, Center for Cancer Research, National Cancer Institute) were maintained in Dulbecco's modified Eagle's high-glucose medium (DMEM). HeLa cells (ATCC) were maintained in RPMI 1640 medium, HAP1 cells (Horizon Discovery) were maintained in Iscove's Modified Dulbecco's medium. U2OS cells (ATCC) were maintained in McCoy's 5A medium. Media were supplemented with 10% (vol/vol) fetal bovine serum (FBS) and 1% antibiotic/antimycotic (Lonza) in a humidified incubator with 10% CO2. Stable HEK293T cells containing Strep-tagged GRB2 or GRB2 mutants were produced as described previously (Ahmed et al., 2013). The I-SecI reporter assay (a generous gift from Jeremy Stark, City of Hope) was performed as described previously(Gunn and Stark, 2012). The sulforhodamine B (SRB) cytotoxicity and colony formation assays were performed as described previously(Houl et al., 2019).

[3] = tested on: GRB2-KO HeLa cells reconstituted with K109R mutant GRB2; experiment: SRB assay of olaparib-induced cytotoxicity; settings: Homo sapiens, GRB2-KO cells reconstituted with K109R GRB2, sulforhodamine B assay
Text: as §1, §3

GRB2-KO HeLa cells [4] = experiment: SRB assay of olaparib-induced cytotoxicity; settings: sulforhodamine B assay
Text: as §1, §3

[5] = tested on: GRB2-KO HeLa cells reconstituted with WT GRB2; experiment: SRB assay of olaparib-induced cytotoxicity; settings: Homo sapiens, GRB2-KO cells reconstituted with WT GRB2, sulforhodamine B assay
Text: as §1, §3

[6] = tested on: K109R GRB2 reconstituted HeLa cells; experiment: Clonogenic survival assay with olaparib; settings: cultured for 10 days
Text: as §1, with “significant. […]” for “significant. (FIG. 7F) Bar graph representing Annexin-V/propidium iodide combined labeling and flow cytometry analysis of olaparib-treated control (WT), GRB2-KO, reconstituted ^WTGRB2(KO+GRB2) and K109R mutant (KO+K109R) HeLa cells. Cells were treated with either DMSO or 50 μM olaparib for 72 h. For each treatment group on the X-axis, the columns represent, from left to right, WT, GRB2 KO, KO+GRB2, and KO+K109R. All data are representative of three independent experiments.”, “significant. […]” for “significant.”

GRB2-KO HeLa cells [7] = experiment: Clonogenic survival assay with olaparib; settings: cultured for 10 days
Text: as §1, with “significant. […]” for “significant. (FIG. 7F) Bar graph representing Annexin-V/propidium iodide combined labeling and flow cytometry analysis of olaparib-treated control (WT), GRB2-KO, reconstituted ^WTGRB2(KO+GRB2) and K109R mutant (KO+K109R) HeLa cells. Cells were treated with either DMSO or 50 μM olaparib for 72 h. For each treatment group on the X-axis, the columns represent, from left to right, WT, GRB2 KO, KO+GRB2, and KO+K109R. All data are representative of three independent experiments.”, “significant. […]” for “significant.”

SMILES: O=C(c1cc(Cc2n[nH]c(=O)c3ccccc23)ccc1F)N1CCN(C(=O)C2CC2)CC1 [olaparib]
- olaparib-induced apoptosis (control (WT) HeLa cells): 20%
- olaparib-induced apoptosis (GRB2-KO HeLa cells [1]): 60%
- olaparib-induced apoptosis phenotype [2]: failed to rescue the phenotype
- IC50 (control HeLa cells): 124 ± 41 µM
- IC50 [3]: 20 ± 3 µM
- IC50 (GRB2-KO HeLa cells [4]; Homo sapiens, HeLa, GRB2-KO cells): 18 ± 2.9 µM
- sensitivity to olaparib, GRB2-KO cells versus WT control cells (GRB2-KO HeLa cells [4]): 7 times
- IC50 [5]: 164 ± 47 µM
- colony formation in response to olaparib [6]: severe reduction in colony formation
- colony formation in response to olaparib (GRB2-KO HeLa cells [7]): severe reduction in colony formation
